Data as given in PubChem BioAssay (NCI).
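A five-concentration, 48-hour dose response in 96-well plates underlies each endpoint, interpolated linearly between surrounding concentrations. GI50 = concentration required for 50% inhibition of growth. TGI is the concentration that stops growth completely.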

Experiments:
Experiment in all cases: NCI-60 cell line screen, 48 h
K-562 leukemia = system: K-562 leukemia
PC-3 prostate = system: PC-3 prostate
HCC-2998 colon = system: HCC-2998 colon
SF-539 CNS = system: SF-539 CNS
SW-620 colon = system: SW-620 colon
SNB-75 CNS = system: SNB-75 CNS
U251 CNS = system: U251 CNS
CCRF-CEM leukemia = system: CCRF-CEM leukemia
HL-60(TB) leukemia = system: HL-60(TB) leukemia
MALME-3M melanoma = system: MALME-3M melanoma

CC(=O)c1cccc(-c2cccc(-c3ccn(CCN4CCOCC4)n3)c2)c1
GI50 (K-562 leukemia): > 20 µM
TGI (K-562 leukemia): > 20 µM
GI50 (PC-3 prostate): > 20 µM
TGI (PC-3 prostate): > 20 µM
GI50 (HCC-2998 colon): > 20 µM
TGI (HCC-2998 colon): > 20 µM
GI50 (SF-539 CNS): > 20 µM
TGI (SF-539 CNS): > 20 µM
GI50 (SW-620 colon): > 20 µM
TGI (SW-620 colon): > 20 µM
GI50 (SNB-75 CNS): > 20 µM
TGI (SNB-75 CNS): > 20 µM
GI50 (U251 CNS): > 20 µM
TGI (U251 CNS): > 20 µM
GI50 (CCRF-CEM leukemia): > 20 µM
TGI (CCRF-CEM leukemia): > 20 µM
GI50 (HL-60(TB) leukemia): > 20 µM
TGI (HL-60(TB) leukemia): > 20 µM

COC(=O)[C@H]1[C@H]2C[C@@H]3c4[nH]c5cc(OC)ccc5c4CCN3C[C@H]2C[C@@H](OC(=O)/C=C/c2cc(OC)c(OC)c(OC)c2)[C@@H]1OC
GI50 (MALME-3M melanoma): 18.7 µM
TGI (MALME-3M melanoma): 50.6 µM
GI50 (K-562 leukemia): 3.24 µM
TGI (K-562 leukemia): 38.4 µM
GI50 (PC-3 prostate): 6.91 µM
TGI (PC-3 prostate): > 100 µM
GI50 (HCC-2998 colon): 24.2 µM
TGI (HCC-2998 colon): > 100 µM
GI50 (SF-539 CNS): 12.5 µM
TGI (SF-539 CNS): 25.4 µM
GI50 (SW-620 colon): 8.47 µM
TGI (SW-620 colon): > 100 µM
GI50 (SNB-75 CNS): 5.19 µM
TGI (SNB-75 CNS): 20.2 µM
GI50 (U251 CNS): 3.58 µM
TGI (U251 CNS): 14.6 µM
GI50 (CCRF-CEM leukemia): 1.48 µM
TGI (CCRF-CEM leukemia): 5.62 µM

CS(=O)(=O)NNS(=O)(=O)c1ccc(Cl)cc1
TGI (MALME-3M melanoma): > 100 µM
TGI (K-562 leukemia): > 100 µM
TGI (HCC-2998 colon): > 100 µM
TGI (SF-539 CNS): > 100 µM
TGI (SW-620 colon): > 100 µM
TGI (SNB-75 CNS): > 100 µM
TGI (U251 CNS): > 100 µM
TGI (CCRF-CEM leukemia): > 100 µM
TGI (HL-60(TB) leukemia): > 100 µM

O=C(CSc1nc(-c2ccccc2)c(-c2ccccc2)[nH]1)NNC(=S)Nc1ccccc1
TGI (MALME-3M melanoma): > 100 µM
TGI (HCC-2998 colon): > 100 µM
TGI (SF-539 CNS): > 100 µM
TGI (SW-620 colon): > 100 µM
TGI (SNB-75 CNS): > 100 µM
TGI (U251 CNS): > 100 µM
TGI (CCRF-CEM leukemia): > 100 µM
TGI (HL-60(TB) leukemia): > 100 µM

CCn1c(=O)c2c3ccc(OC(C)=O)cc3[nH]c2c2ccc(OC(C)=O)cc21
TGI (MALME-3M melanoma): > 100 µM
TGI (K-562 leukemia): > 100 µM
TGI (PC-3 prostate): > 100 µM
TGI (HCC-2998 colon): 54.4 µM
TGI (SF-539 CNS): > 100 µM
TGI (SW-620 colon): > 100 µM
TGI (SNB-75 CNS): 89.5 µM
TGI (U251 CNS): > 100 µM
TGI (CCRF-CEM leukemia): > 100 µM

CC(/C=C/NNC1=NC(c2ccccc2)C(c2ccccc2)=NN1)Sc1ccccc1N (centres undefined)
TGI (MALME-3M melanoma): 20.9 µM
TGI (K-562 leukemia): > 100 µM
TGI (HCC-2998 colon): 29.9 µM
TGI (SF-539 CNS): 20.9 µM
TGI (SW-620 colon): 7.75 µM
TGI (SNB-75 CNS): 14 µM
TGI (U251 CNS): 8.39 µM
TGI (HL-60(TB) leukemia): 6.45 µM

COC(=O)c1ccc(C(=O)OC)c2nc3cc(C)ccc3nc12
TGI (MALME-3M melanoma): > 100 µM
TGI (K-562 leukemia): > 100 µM
TGI (HCC-2998 colon): > 100 µM
TGI (SF-539 CNS): > 100 µM
TGI (SW-620 colon): > 100 µM
TGI (SNB-75 CNS): > 100 µM
TGI (U251 CNS): > 100 µM
TGI (CCRF-CEM leukemia): > 100 µM
TGI (HL-60(TB) leukemia): > 100 µM

COC(=O)c1ccc(CN2C(=O)C(Cl)=C(Nc3ccc(OC)c(Cl)c3)C2=O)cc1
GI50 (K-562 leukemia): 4.17 µM
TGI (K-562 leukemia): > 50 µM
GI50 (PC-3 prostate): 44.3 µM
TGI (PC-3 prostate): > 50 µM
GI50 (SW-620 colon): > 50 µM
TGI (SW-620 colon): > 50 µM
GI50 (U251 CNS): 7.26 µM
TGI (U251 CNS): 19.5 µM
GI50 (CCRF-CEM leukemia): > 50 µM
TGI (CCRF-CEM leukemia): > 50 µM
GI50 (HL-60(TB) leukemia): 32 µM
TGI (HL-60(TB) leukemia): > 50 µM

Cc1ccc2sc3ccc(N)cc3c(=O)c2c1
TGI (K-562 leukemia): > 100 µM
TGI (PC-3 prostate): > 100 µM
TGI (HCC-2998 colon): > 100 µM
TGI (SF-539 CNS): > 100 µM
TGI (SW-620 colon): > 100 µM
TGI (U251 CNS): > 100 µM
TGI (CCRF-CEM leukemia): > 100 µM
TGI (HL-60(TB) leukemia): > 100 µM

COc1cc2c3c(ncc2c(OC)c1OC)-c1cc2c(cc1C3)OCO2
GI50 (K-562 leukemia): 4.27 µM
TGI (K-562 leukemia): 20.5 µM
GI50 (PC-3 prostate): > 100 µM
TGI (PC-3 prostate): > 100 µM
GI50 (HCC-2998 colon): > 100 µM
TGI (HCC-2998 colon): > 100 µM
GI50 (SW-620 colon): 66.4 µM
TGI (SW-620 colon): > 100 µM
GI50 (SNB-75 CNS): > 100 µM
TGI (SNB-75 CNS): > 100 µM
GI50 (U251 CNS): 27.6 µM
TGI (U251 CNS): > 100 µM
GI50 (HL-60(TB) leukemia): 0.0288 µM
TGI (HL-60(TB) leukemia): 4.26 µM

CC1=C(/C=C/C(C)=C/C=C/C(C)=C/C=C/C=C(C)/C=C/C=C(C)/C=C/C2=C(C)C(=O)C(O)CC2(C)C)C(C)(C)CC(O)C1=O (centres undefined)
TGI (MALME-3M melanoma): > 100 µM
TGI (K-562 leukemia): > 100 µM
TGI (HCC-2998 colon): > 100 µM
TGI (SF-539 CNS): > 100 µM
TGI (SW-620 colon): > 100 µM
TGI (SNB-75 CNS): > 100 µM
TGI (U251 CNS): > 100 µM
TGI (CCRF-CEM leukemia): > 100 µM
TGI (HL-60(TB) leukemia): > 100 µM

C/C=C(/C)c1cnc(CC(C)C)c(=O)[nH]1
TGI (K-562 leukemia): > 100 µM
TGI (PC-3 prostate): > 100 µM
TGI (HCC-2998 colon): > 100 µM
TGI (SW-620 colon): > 100 µM
TGI (SNB-75 CNS): > 100 µM
TGI (U251 CNS): > 100 µM
TGI (CCRF-CEM leukemia): > 100 µM

O=C(O)Cc1ccccc1CCc1ccccc1Cl
TGI (MALME-3M melanoma): > 100 µM
TGI (K-562 leukemia): > 100 µM
TGI (HCC-2998 colon): > 100 µM
TGI (SF-539 CNS): > 100 µM
TGI (SW-620 colon): > 100 µM
TGI (SNB-75 CNS): > 100 µM
TGI (U251 CNS): > 100 µM
TGI (CCRF-CEM leukemia): > 100 µM
TGI (HL-60(TB) leukemia): > 100 µM

CCCCN(CC)c1ncnc2ccc(Br)cc12
GI50 (MALME-3M melanoma): 19.1 µM
TGI (MALME-3M melanoma): 38.5 µM
GI50 (K-562 leukemia): 10.4 µM
TGI (K-562 leukemia): 51.1 µM
GI50 (PC-3 prostate): 18.9 µM
TGI (PC-3 prostate): 49.6 µM
GI50 (HCC-2998 colon): 20.5 µM
TGI (HCC-2998 colon): 44.2 µM
GI50 (U251 CNS): 18.2 µM
TGI (U251 CNS): 44.9 µM
GI50 (CCRF-CEM leukemia): 19 µM
TGI (CCRF-CEM leukemia): 63.8 µM

CCCCCCNC(=O)n1cc(F)c(=O)[nH]c1=O
GI50 (PC-3 prostate): 10.1 µM
TGI (PC-3 prostate): 27.3 µM
GI50 (HCC-2998 colon): 0.287 µM
TGI (HCC-2998 colon): 18.4 µM
GI50 (SF-539 CNS): 0.514 µM
TGI (SF-539 CNS): 15.1 µM
GI50 (SW-620 colon): 3.48 µM
TGI (SW-620 colon): 20.7 µM
GI50 (SNB-75 CNS): 7.51 µM
TGI (SNB-75 CNS): 43 µM
GI50 (U251 CNS): 4.27 µM
TGI (U251 CNS): 17.5 µM
GI50 (CCRF-CEM leukemia): 3.2 µM
TGI (CCRF-CEM leukemia): 26.7 µM
GI50 (HL-60(TB) leukemia): 6.84 µM
TGI (HL-60(TB) leukemia): 30.6 µM

COc1ccc2ccccc2c1CN1CCOCCOCCN(Cc2c(OC)ccc3ccccc23)CCOCCOCC1
TGI (MALME-3M melanoma): > 63.9 µM
TGI (K-562 leukemia): > 100 µM
TGI (HCC-2998 colon): 35.3 µM
TGI (SF-539 CNS): > 68.8 µM
TGI (SW-620 colon): > 94.7 µM
TGI (SNB-75 CNS): > 100 µM
TGI (U251 CNS): > 100 µM
TGI (CCRF-CEM leukemia): > 100 µM
TGI (HL-60(TB) leukemia): 53.4 µM

CCCCN(CCCC)CCc1c(C)cc(C)c(CCN(CCCC)CCCC)c1O
GI50 (MALME-3M melanoma): 2.94 µM
TGI (MALME-3M melanoma): 11.3 µM
GI50 (K-562 leukemia): 2.25 µM
TGI (K-562 leukemia): > 100 µM
GI50 (HCC-2998 colon): 3.17 µM
TGI (HCC-2998 colon): 32.6 µM
GI50 (SF-539 CNS): 3.51 µM
TGI (SF-539 CNS): 28.2 µM
GI50 (SW-620 colon): 2.88 µM
TGI (SW-620 colon): > 100 µM
GI50 (SNB-75 CNS): 2.52 µM
TGI (SNB-75 CNS): 40.3 µM
GI50 (U251 CNS): 3.24 µM
TGI (U251 CNS): 42.6 µM
GI50 (CCRF-CEM leukemia): 3.12 µM
TGI (CCRF-CEM leukemia): > 100 µM
GI50 (HL-60(TB) leukemia): 2.51 µM
TGI (HL-60(TB) leukemia): 8.17 µM

CC1(C)C(=O)C=CC2(C)C1CC(O)C1(C)C2CCC2(C)C(c3ccoc3)OC(=O)C3OC321 (centres undefined)
TGI (K-562 leukemia): > 100 µM
TGI (PC-3 prostate): > 100 µM
TGI (HCC-2998 colon): 26.2 µM
TGI (SW-620 colon): 59.9 µM
TGI (SNB-75 CNS): 39.5 µM
TGI (U251 CNS): 40.5 µM
TGI (CCRF-CEM leukemia): 57.5 µM

Clc1ccc2c(c1)[nH]c1c2nc2sccn21
TGI (MALME-3M melanoma): > 100 µM
TGI (K-562 leukemia): > 100 µM
TGI (HCC-2998 colon): > 100 µM
TGI (SF-539 CNS): > 100 µM
TGI (SW-620 colon): > 100 µM
TGI (SNB-75 CNS): > 100 µM
TGI (U251 CNS): > 100 µM
TGI (CCRF-CEM leukemia): > 100 µM
TGI (HL-60(TB) leukemia): > 100 µM
